Data set [1] in a line: MTT cell viability assay in HeLa cells. It counts as cell-based. Conditions: human. The procedure:
(§1) HeLa cells were maintained in 5% CO2 in DMEM supplemented with 10% FBS, 2 mM L-glutamine, 100 U/mL penicillin and […] streptomycin, in an atmosphere containing 5% CO2.
(§2) Cells were regularly passed and used for experiments within one month after thawing (10-15 […]
(§3) 1.6.2 Cell viability assay
(§4) Cell viability was assayed by 3-(4,5-dimethylthiazol-2-yl)-2,5-diphenyltetrazolium bromide (MTT) colorimetric assay. HeLa cells were plated on 96-well plates (20,000 cells per well in 100 μL). After 24 h, cells were treated with different concentrations of test compounds or vehicle alone (DMSO). One hour before the end of the incubations, 10 μL of MTT solution (5 mg/mL in PBS) were added to each well. Formazan crystals (proportional to the number of viable cells) were then dissolved by the addition of 20 μL/well of a pH 4.7 solution containing 20% (w:v) SDS, 50% (v:v) N,N-dimethylformamide, 2% (v:v) acetic acid, and 25 mM HCl, and quantified by recording the absorbance at 570 nm using an Infinite M200 PRO plate reader (TECAN, Life Sciences). […]

The subject of the next data set is HeLa cells. The data set can be described thus: MTT cell viability assay in HeLa cells. It counts as cell-based. Particulars: HeLa cells, MTT, 48 h. The procedure:
as §1, §2, §3, §4

The next data set is described as follows: Serum stability test. Particulars: 20% human serum in PBS, 37 °C, monitored over 24 h. The format is in vitro ADME. As to the method:
1.6.3 Serum stability test
500 μL of PBS buffer supplemented with 20% (v/v) of human serum was allocated into an Eppendorf tube and temperature kept at 37 °C for 15 minutes before commencing the experiment. 5 µL of the peptide from 10 mM stock solution in DMSO was added. Caffeine was added as an internal standard (10 μL of a 15 mg/mL solution in MQ water). At specific intervals, 50 µL of the reaction mixture was taken and quenched with 100 µL of a 1:1 mixture of 96% Ethanol:DMSO. The suspension was spun at 13400 g for 10 minutes. 100 μL of the supernatant was analysed using C-18 HPLC with an eluting gradient 5-95% MeCN (0.05% TFA) in water (0.05% TFA) over 15 minutes (90 μL injection volume).
Percentage of intact starting peptide was monitored over 24 h (calculated as the ratio of the area of […]
the peak corresponding to the intact peptide to the area of the peak of caffeine). The experiment was […]
1 M. M. Wiedmann, Y. S. Tan, Y. Wu, S. Aibara, W. Xu, H. F. Sore, C. S. Verma, L. Itzhaki, M.
Stewart, J. D. Brenton and D. R. Spring, Angew. Chemie Int. Ed., 2017, 56, 524–529.
3 G. T. Potter, G. C. Jayson, G. J. Miller and J. M. Gardiner, J. Org. Chem., 2016, 81, 3443–3446.
4 J. Iegre, P. Brear, D. J. Baker, Y. S. Tan, E. L. Atkinson, H. F. Sore, D. H. O’ Donovan, C. S. Verma,
7 C. Puig Duran, F. Albericio Palomera, M. Gongora Benitez, M. Paradis Bas, L. Miret Casals, I. […]

A short description of data set [2]: Solubility observations during FP and ITC testing. It counts as physicochemical. Conditions: observed during FP or ITC testing.

From paper PMC9004346, “Development of small cyclic peptides targeting the CK2α/β interface” (Chemical Communications (Cambridge, England), 2022) come the findings set out here.

Where two headings read alike, the source gives them in different places. *1 amine or outer side, *2 acyl side, *3 side chain or, on linkers, in order; H or OH if unused. Where a SMILES comes first, the peptide text is derived from it. Bridges are numbered along the chain shown (N, C = ends). [ ]: non-standard residue; d: D form. Trp(2-yl) = O=C([C@H](Cc1c([*:3])[nH]c2ccccc12)N[*:1])[*:2]; hCys = N[C@@H](CCS)C(=O)O; CH2 = C([*:1])[*:2]; Ahx = NCCCCCC(=O)O

With `CC(C)C[C@@H]1NC(=O)[C@H](CCCNC(=N)N)NC(=O)[C@@H](NC(=O)CCCCCNC(=O)CCCCCNC(=O)[C@H](CCC(N)=O)NC(=O)[C@@H]2CCCN2C(=O)[C@@H]2CCCN2C(=O)[C@H](CCCNC(=N)N)NC(=O)[C@H](CCCNC(=N)N)NC(=O)[C@H](CCCNC(=N)N)NC(=O)[C@H](CCC(N)=O)NC(=O)[C@H](CCCNC(=N)N)NC(=O)[C@H](CCCNC(=N)N)NC(=O)[C@H](CCCCN)NC(=O)[C@H](CCCCN)NC(=O)[C@H](CCCNC(=N)N)NC(=O)CN)CCSc2[nH]c3ccccc3c2C[C@@H](C(N)=O)NC(=O)[C@H](CCCCN)NC(=O)[C@H](Cc2ccccc2)NC(=O)CNC(=O)[C@H](Cc2ccc(O)cc2)NC1=O` [TAT-P8C9] (H-GRKKRRQRRRPPQ[Ahx][Ahx][hCys]RLYGFK[Trp(2-yl)]-NH2; thioether 16-23), in data set [1] (HeLa cells, 48 h, 50 μM compound, ±standard deviation, read-out: Cell viability (%) 50 μM compound), the viability at 48 h, 50 µM came out at 66 ± 4%. In data set [1] (HeLa cells, 48 h, 100 μM compound, ±standard deviation, read-out: Cell viability (%) 100 μM compound), the viability at 48 h, 100 µM is 26 ± 7%. Also, the “Effect on cell viability (in words)” value in the data set with HeLa cells is “large reduction in cell viability”.
In data set [1], `CC(C)C[C@@H]1NC(=O)[C@H](CCCNC(=N)N)NC(=O)[C@@H](NC(=O)CCCCCNC(=O)CCCCCNC(=O)[C@H](CCCNC(=N)N)NC(=O)[C@H](CCCNC(=N)N)NC(=O)[C@@H](N)CCCNC(=N)N)CCSc2[nH]c3ccccc3c2C[C@@H](C(N)=O)NC(=O)[C@H](CCCCN)NC(=O)[C@H](Cc2ccccc2)NC(=O)CNC(=O)[C@H](Cc2ccc(O)cc2)NC1=O` [Peptide R3-P8C9] (H-RRR[Ahx][Ahx][hCys]RLYGFK[Trp(2-yl)]-NH2; thioether 6-13) gave a viability at 48 h, 50 µM of 66 ± 5% and a viability at 48 h, 100 µM of 54 ± 4%. Also, the “Effect on cell viability (in words)” value in the data set with HeLa cells is recorded as “large reduction in cell viability”.
Regarding `CC(=O)N[C@@H](CCS)C(=O)N[C@@H](CCCNC(=N)N)C(=O)N[C@@H](CC(C)C)C(=O)N[C@@H](Cc1ccc(O)cc1)C(=O)NCC(=O)N[C@@H](Cc1ccccc1)C(=O)N[C@@H](CCCCN)C(=O)N[C@@H](Cc1c[nH]c2ccccc12)C(N)=O` [Peptide P8] (Ac-[hCys]RLYGFKW-NH2), in the data set “Serum stability test”, the “Serum stability (in words)” value is given as “fully had degraded after 1 h”.
As for `CC(=O)N[C@H]1CSCSC[C@@H](C(N)=O)NC(=O)[C@H](CCCCN)NC(=O)[C@H](Cc2ccccc2)NC(=O)CNC(=O)[C@H](Cc2ccc(O)cc2)NC(=O)[C@H](CC(C)C)NC(=O)[C@H](CCCNC(=N)N)NC1=O` [Peptide P5C6] (Ac-CRLYGFKC-NH2; linker 1-8 via CH2), the “Solubility (observation in words)” value in data set [2] is “poor solubility”.
